Experimental data reported in patent US6410792B1, “Amide derivatives and methods for using the same as selective neuropeptide Y receptor antagonists” (Bayer Corporation, priority 1997, dated 2002).
Structures can show the parent of a compound that is named as a salt. Where two headings read alike, the source gives them in different places.

Legend:
[1] = target: T1, Human NPY5 receptor (Homo sapiens, UniProt Q15761); test: Human NPY5 receptor binding assay ([125I]PYY, membrane protein); details: [125I]PYY, read-out: hNPY5 IC50
T1 sequence (Q15761 1-445): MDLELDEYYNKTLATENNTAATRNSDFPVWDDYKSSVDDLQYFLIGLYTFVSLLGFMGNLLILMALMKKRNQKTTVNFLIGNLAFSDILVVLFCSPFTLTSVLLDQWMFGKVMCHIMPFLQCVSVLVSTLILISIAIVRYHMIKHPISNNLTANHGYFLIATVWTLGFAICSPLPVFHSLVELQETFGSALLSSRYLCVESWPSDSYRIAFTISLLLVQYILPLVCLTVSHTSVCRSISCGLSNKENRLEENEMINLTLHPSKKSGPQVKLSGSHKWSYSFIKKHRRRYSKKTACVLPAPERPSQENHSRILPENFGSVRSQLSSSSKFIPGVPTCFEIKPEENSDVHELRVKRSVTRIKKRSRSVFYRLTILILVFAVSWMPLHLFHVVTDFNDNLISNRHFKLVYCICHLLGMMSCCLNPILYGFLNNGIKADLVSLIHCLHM
Procedure, shortened: (§1)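 Filter binding with membrane protein and porcine [125I]PYY at 75-100 pM, 2 h at room temperature; nonspecific binding set by 1 μM PYY.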

[2] = target: T2, Rat NPY5 receptor (Rattus norvegicus, UniProt Q63634); test: Rat NPY5 receptor binding assay ([125I]PYY, membrane protein)
T2 sequence (Q63634 1-445): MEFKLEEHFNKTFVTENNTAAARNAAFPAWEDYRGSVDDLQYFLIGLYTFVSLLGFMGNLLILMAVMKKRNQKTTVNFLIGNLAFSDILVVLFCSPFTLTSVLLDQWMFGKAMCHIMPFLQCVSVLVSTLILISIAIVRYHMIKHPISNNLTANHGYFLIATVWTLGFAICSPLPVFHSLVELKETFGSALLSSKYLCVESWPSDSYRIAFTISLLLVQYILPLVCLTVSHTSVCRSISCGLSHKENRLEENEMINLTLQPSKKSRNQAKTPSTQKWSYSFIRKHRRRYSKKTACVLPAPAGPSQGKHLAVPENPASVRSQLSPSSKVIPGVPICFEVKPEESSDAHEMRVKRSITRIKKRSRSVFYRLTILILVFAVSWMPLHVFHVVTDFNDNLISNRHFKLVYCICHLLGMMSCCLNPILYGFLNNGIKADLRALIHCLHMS
Procedure, shortened: as §1

[3] = target: T2, Rat NPY5 receptor; test: Rat NPY5 cyclase assay (in vitro functional assay, forskolin-stimulated adenylate cyclase, cAMP); type: cell-based; details: 10 μM, percentage of forskolin-stimulated adenylate cyclase; for activity at 10 µM: 20 min, read-out: rNPY5 % FSAC (10 μM)
Experimental: D. Rat NYP5 Cyclase Assay (In Vitro Functional Assay)
Cells stably expressing the rat NPY5 receptor are resuspended in serum-free DMEM containing 10 mM HEPES (pH 7.4) and 1 mM isobutylmethylxanthine (IBMX). […] forskolin and drug dilution are then added to the cells. After a 20 minute incubation of the samples at 37° C, the assay is stopped by placing the samples in boiling water for 3 minutes. The cAMP produced in each sample is quantitated with a radioimmunoassay kit (NEN DuPont). Data are expressed as a percentage of forskolin-stimulated adenylate cyclase.

[4] = target: T3, Human NPY1 receptor (Homo sapiens, UniProt P25929); test: Human NPY1 receptor binding assay ([125I]PYY, SK-N-MC cells)
T3 construct: host or cells: SK-N-MC cells
T3 sequence (P25929 1-384): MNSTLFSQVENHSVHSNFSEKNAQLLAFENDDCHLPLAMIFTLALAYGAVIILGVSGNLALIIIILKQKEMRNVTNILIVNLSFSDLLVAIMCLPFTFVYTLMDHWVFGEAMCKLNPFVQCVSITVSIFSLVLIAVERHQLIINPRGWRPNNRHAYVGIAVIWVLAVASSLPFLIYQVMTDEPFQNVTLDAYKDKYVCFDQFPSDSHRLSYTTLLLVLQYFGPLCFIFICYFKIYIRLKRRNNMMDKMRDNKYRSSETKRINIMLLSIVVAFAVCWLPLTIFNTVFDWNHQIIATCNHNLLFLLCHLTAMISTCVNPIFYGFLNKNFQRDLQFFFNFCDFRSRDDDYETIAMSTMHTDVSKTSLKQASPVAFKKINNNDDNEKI
Procedure, shortened: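 Whole-cell competition with ~50 pM [125I]PYY on SK-N-MC monolayers, 3 h at room temperature after 30 min preincubation in HEPES-buffered (pH 7.3) serum-free DMEM containing protease inhibitors. Gamma counting of cell lysates; 1 μM NPY gave nonspecific binding.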

[5] = target: human Y4/PP1 receptor (Homo sapiens, UniProt P50391); test: Human Y4/PP1 receptor binding assay ([125I]human PP, membrane protein)
Procedure, shortened: (§2)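 Filtration binding with membrane protein and drug dilution, 2 h at room temperature with mixing, radioactivity counted by gamma or scintillation. Y2: 25 pM [125I]PYY in Krebs-Ringer bicarbonate pH 7.4 with 0.01% BSA, nonspecific by 1 μM NPY. Y4/PP1: 50 pM [125I]hPP in HEPES-buffered saline pH 7.4 with protease inhibitors and 0.3% BSA, nonspecific by 1 μM hPP.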

[6] = target: T4, Y2 receptor (Homo sapiens, UniProt P49146); test: Y2 receptor binding assay ([125I]PYY, membrane protein); details: [125I]PYY, membrane protein; read-out: hNPY2 IC50
T4 sequence (P49146 1-381): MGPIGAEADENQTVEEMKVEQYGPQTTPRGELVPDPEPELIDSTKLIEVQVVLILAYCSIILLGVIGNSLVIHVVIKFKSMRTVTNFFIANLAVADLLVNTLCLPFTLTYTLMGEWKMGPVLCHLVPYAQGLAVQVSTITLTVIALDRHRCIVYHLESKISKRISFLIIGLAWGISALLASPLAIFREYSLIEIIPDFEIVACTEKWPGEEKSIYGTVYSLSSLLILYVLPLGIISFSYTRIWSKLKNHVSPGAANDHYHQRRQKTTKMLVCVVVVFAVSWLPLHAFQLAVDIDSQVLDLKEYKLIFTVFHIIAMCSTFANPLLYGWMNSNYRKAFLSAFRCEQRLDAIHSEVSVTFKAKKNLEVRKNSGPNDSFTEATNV
Procedure, shortened: as §2

[7] = [125I]PYY, read-out: rNPY5 IC50
[8] = [125I]PYY, SK-N-MC cells, read-out: hNPYI IC50
[9] = [125I]human PP, membrane protein, read-out: hNPY4 IC50

human Y4/PP1 receptor, sequence (P50391 whole entry): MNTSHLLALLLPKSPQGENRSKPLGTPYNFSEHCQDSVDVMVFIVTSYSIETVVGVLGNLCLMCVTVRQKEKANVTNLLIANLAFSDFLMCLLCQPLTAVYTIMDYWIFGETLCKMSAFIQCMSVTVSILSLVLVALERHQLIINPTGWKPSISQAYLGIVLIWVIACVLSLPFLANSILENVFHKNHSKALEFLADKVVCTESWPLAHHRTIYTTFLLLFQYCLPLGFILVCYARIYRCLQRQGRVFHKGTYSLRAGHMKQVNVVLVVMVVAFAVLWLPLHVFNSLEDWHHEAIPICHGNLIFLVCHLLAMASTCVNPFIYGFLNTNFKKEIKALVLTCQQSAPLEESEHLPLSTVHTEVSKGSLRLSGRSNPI

SMILES	IC50 [1]	IC50 [2, 7]	activity at 10 µM [3]	IC50 [4, 8]	IC50 [5, 9]	IC50 [6]	IC50 ([2]; rNPY5 IC50, [125I]PYY)	IC50 [4]	IC50 [5]	melting point	rNPY5 % FSAC (10 μM) [3]
O=C(CN1CCC(n2c(=O)[nH]c3ccccc32)CC1)Nc1ccc(N=Nc2ccccc2)cc1 [Compound 349, 2-[4-(2-Oxo-2,3-dihydro-benzoimidazol-1-yl)-piperidin-1-yl]-N-(4-phenylazo-phenyl)-acetamide, reference compound]	0.138 µM	0.165 µM	100%	> 5 µM	> 5 µM	> 5 µM	–	–	–	–	–
CCOc1ccc(NC(=O)CN2CCC(n3c(=O)[nH]c4ccccc43)CC2)c2ccccc12 [Compound 346, N-(4-Ethoxy-naphthalen-1-yl)-2-[4-(2-oxo-2,3-dihydro-benzoimidazol-1-yl)-piperidin-1-yl]-acetamide, reference compound]	0.081 µM	0.063 µM	105%	> 5 µM	> 5 µM	> 5 µM	–	–	–	–	–
N#CC1(c2ccccc2)CCN(CC(=O)Nc2ccc(C3CCCCC3)cc2)CC1 [Compound 295, 2-(4-Cyano-4-phenyl-piperidin-1-yl)-N-(4-cyclohexyl-phenyl)-acetamide; hydrochloride]	0.0047 µM	–	101%	–	–	> 5 µM	0.0045 µM	> 5 µM	> 5 µM	–	–
Cl.O=C(CN1CCC(n2c(=O)[nH]c3ccccc32)CC1)Nc1ccc2c(c1)-c1ccccc1C2=O [Compound 311, 2-[4-(2-Oxo-2,3-dihydro-benzoimidazol-1-yl)-piperidin-1-yl]-N-(9-oxo-9H-fluoren-3-yl)-acetamide; hydrochloride]	0.00047 µM	0.00034 µM	95%	–	–	–	–	–	–	258 °C	–
O=C(CN1CCN(c2ccccc2Cl)CC1)Nc1ccc(C2CCCCC2)cc1.O=C(O)C(=O)O [Compound 299]	0.14 µM	0.16 µM	–	> 5 µM	> 5 µM	> 5 µM	–	–	–	–	103%
O=C(CN1CCC(n2c(=O)[nH]c3ccccc32)CC1)Nc1ccc(Br)c(Cl)c1 [Compound 342, N-(4-Bromo-3-chloro-phenyl)-2-[4-(2-oxo-2,3-dihydro-benzoimidazol-1-yl)-piperidin-1-yl]-acetamide, reference compound]	0.276 µM	0.37 µM	105%	> 5 µM	> 5 µM	> 5 µM	–	–	–	–	–
O=C(CN1CCC(n2c(=O)[nH]c3ccccc32)CC1)Nc1ccc([N+](=O)[O-])c(Cl)c1 [Compound 357, N-(3-Chloro-4-nitro-phenyl)-2-[4-(2-oxo-2,3-dihydro-benzoimidazol-1-yl)-piperidin-1-yl]-acetamide, reference compound]	0.239 µM	0.229 µM	112%	> 5 µM	> 5 µM	> 5 µM	–	–	–	–	–
